Tests used:
[1] = Ability to cross the blood-brain-barrier; conditions: statement in words, no data shown
[2] = system: TNBCs and their metastases; test: Stopping the growth of TNBCs and their metastases; conditions: statement in words, no data shown

## COc1ccc(C(CCCCNC(=O)Nc2ccc(Cl)c([N+](=O)[O-])c2)c2ccc(OC)cc2)cc1 [1-(5,5-bis(4-methoxyphenyl)pentyl)-3-(4-chloro-3-nitrophenyl)urea]
[1]
  ability to cross the blood-brain-barrier (BBB): shows the ability to cross the blood-brain-barrier
[2]
  stopping the growth of TNBCs and their metastases: effective in stopping the growth of TNBCs and their metastases

Reference: US12338204B2, “Substituted bisphenylalkylurea compounds and methods of treating breast cancer” (Texas Tech University System, priority 2018, dated 2025)
